The values below come from patent US11401264B2, “Heterocyclic compound” (Orizuru Therapeutics, Inc., priority 2018, dated 2022).

Structures are written as SMILES.

For this test, the system named is cardiomyocytes from double knock-in human iPS cell lines (mCherry at TNNI3 locus). Description: Experimental Example 1: mCherry (TNNI3 reporter) immunostaining measured by high contents screening. The format is cell-based. Also on record: key to average fluorescent intensity (at 30 μM): —: The symbol in Table 2 means that the average fluorescent intensity cannot be evaluated due to cell decrease. Conditions: read on 8th day, Alexa 647 anti-mCherry, control well 797; for average fluorescent intensity (at 1 μM): test compound 1 μM added on 3rd and 6th culture days; for average fluorescent intensity (at 30 μM): test compound 30 μM added on 3rd and 6th culture days. The protocol: For detection of cardiomyocyte maturation, double knock-in human iPS cell lines, in which reporter protein sequences, EmGFP (Sequence Number 1) and mCherry (Sequence Number 2) were inserted into gene loci for TNNI1 and TNNI3, respectively, were prepared (the human iPS cells were prepared from episomal vector (loaded gene; OCT3/4, KLF4, SOX2, L-MYC, LIN28, mouse p53DD) using PBMC (LP_167, Sample ID: 20130318) purchased from CTL (reference literature; Okita K, et al. Stem Cells. 2012 Nov. 29. doi: 10.1002/stem.1293)).
The maintenance culture of the above-mentioned reporter iPS cell lines was carried out by a conventional method (Okita K, et al. Stem Cells. 2012 Nov. 29. doi: 10.1002/stem.1293).
For differentiation induction into cardiomyocytes, the reporter iPS cell lines were treated with 0.5×TrypLE select (Life Technologies, diluted in 1/2 with 0.5 mM EDTA/PBS) for 4 to 5 minutes, and the cells were exfoliated using a cell scraper (IWAKI), and then dissociated into the single cell by pipetting. The medium was removed by centrifugation (1,000 rpm, 5 min), and the obtained cells were seeded on a bioreactor (ABLE) by 1×10^7 cells per 30 mL of the bioreactor, and then cultured in a medium prepared by adding 1% L-glutamine, transferrin 150 μg/mL, ascorbic acid 50 μg/mL (Sigma), monothioglycerol 4×10^−4 M, 10 μM Rock inhibitor (Y-27632), 2 ng/mL BMP4 (R&D) and 0.5% Matrigel (Growth Factor Reduced) to a medium after removal of solution C from StemFit AK02 (AJINOMOTO AK02, 400 mL of solution A and 100 mL of B solution, total 500 mL), at 37° C., under 5% oxygen condition (55 rpm, stirred suspension culture method) to form embryoid bodies (0 day).
Next day (1st day), 9 μL (final concentration 3 ng/mL) of 10 μg/mL activin A, 15 μL (final concentration 5 ng/mL) of 10 μg/mL bFGF and […] (final concentration 10 ng/mL) of 10 μg/mL BMP4 were added to the bioreactor, and the cells were cultured at 37° C. for additional 2 days, under 5% oxygen condition.
Then (3rd day), the obtained embryoid bodies were collected in a 50 mL centrifuge tube, and then subjected to centrifugation (200 g, 1 min). The medium was removed, and the embryoid bodies were cultured in a medium prepared by adding 1% L-glutamine, transferrin 150 μg/mL, ascorbic acid 50 μg/mL (Sigma), monothioglycerol 4×10^−4 M, 10 ng/mL VEGF, 1 μM IWP-3, 0.6 μM dorsomorphin and 5.4 μM SB431542 to a medium after removal of solution C from StemFit AK02 (AJINOMOTO AK02, 400 mL of solution A and 100 mL of B solution, total 500 mL), at 37° C. for 3 days, under 5% oxygen condition (55 rpm, stirred suspension culture method).
Then (6th day), the bioreactor was left to stand to precipitate the embryoid bodies, and 80 to 90% of the medium was removed. A medium prepared by adding 1% L-glutamine, transferrin 150 μg/mL, ascorbic acid 50 μg/mL (Sigma), monothioglycerol […] and 5 ng/mL VEGF to a medium after removal of solution C from StemFit AK02 (AJINOMOTO AK02, 400 mL of solution A and 100 mL of B solution, total 500 mL) was added to the bioreactor so that the total volume became 30 mL, and the embryoid bodies were cultured for 8 days, at 37° C., under 5% oxygen condition (55 rpm, stirred suspension culture method). During the culture, the medium was replaced with a medium under the same conditions every 2 to 3 days.
14th Day after the start of the differentiation induction, the embryoid bodies were treated with 2 mg/mL collagenase type I (Sigma) for 2 hr, and then with 0.25% trypsin/EDTA (Invitrogen) for 10 min. 50% FBS/IMDM (Thermo Fisher Science) was added thereto, and the embryoid bodies were dissociated into the single cell by pipetting, and then subjected to centrifugation (1,000 rpm, 5 minutes). […]

On to `O=C(COc1ccc(-c2nc3cc(N4Cc5cc(N6CCCCC6)ccc5C4=O)ccc3[nH]2)cc1)NC/C=C/CCc1ccccc1` [Example 9, 2-(4-(5-(1-oxo-5-(piperidin-1-yl)-1,3-dihydro-2H-isoindol-2-yl)-1H-benzimidazol-2-yl)phenoxy)-N-((2E)-5-phenylpent-2-en-1-yl)acetamide], for which the “average fluorescent intensity (at 1 μM)” value stood at 948 and the “average fluorescent intensity (at 30 μM)” value was “—”.

With `CCCNC(=O)COc1ccc(-c2nc3cc(N4Cc5cc(N6CCOCC6)ccc5C4=O)ccc3[nH]2)cc1` [Example 49, 2-(4-(5-(5-(morpholin-4-yl)-1-oxo-1,3-dihydro-2H-isoindol-2-yl)-1H-benzimidazol-2-yl)phenoxy)-N-propylacetannide], the “average fluorescent intensity (at 1 μM)” value is reported as 1382 and the “average fluorescent intensity (at 30 μM)” value amounted to 890.

In the case of `CCOc1ccc(Cc2nc3cc(N4Cc5cc(N6CCOCC6)ccc5C4=O)ccc3[nH]2)cc1` [Example 57, 2-(2-(4-ethoxybenzyl)-1H-benzimidazol-5-yl)-5-(morpholin-4-yl)isoindolin-1-one], the “average fluorescent intensity (at 1 μM)” value was 778 and the “average fluorescent intensity (at 30 μM)” value was 1666.

In the case of `O=C1c2ccc(N3CCCCC3)cc2CN1c1ccc2[nH]c(-c3ccccn3)nc2c1` [Example 47, 5-(piperidin-1-yl)-2-(2-(pyridin-2-yl)-1H-benzimidazol-5-yl)isoindolin-1-one], the “average fluorescent intensity (at 1 μM)” value is 1115 and the “average fluorescent intensity (at 30 μM)” value is on record as 1348.

Consider `O=C(COc1ccc(-c2nc3cc(N4Cc5cc(N6CCOCC6)ccc5C4=O)ccc3[nH]2)cc1)N1CCCCC1` [Example 33, 5-(morpholin-4-yl)-2-(2-(4-(2-oxo-2-(piperidin-1-yl)ethoxy)phenyl)-1H-benzimidazol-5-yl)isoindolin-1-one], for which the “average fluorescent intensity (at 1 μM)” value came out at 1568 and the “average fluorescent intensity (at 30 μM)” value amounted to 3010.

Regarding `CCOc1ccc(-c2nc3cc(N4Cc5cc(N6CCN(C)CC6)ccc5C4=O)ccc3[nH]2)cc1` [Example 62, 2-(2-(4-ethoxyphenyl)-1H-benzimidazol-5-yl)-5-(4-methylpiperazin-1-yl)isoindolin-1-one], the “average fluorescent intensity (at 1 μM)” value is reported as 1004 and the “average fluorescent intensity (at 30 μM)” value is “—”.

For the compound `O=C(COc1ccc(-c2nc3cc(N4Cc5cc(N6CCCCC6)ccc5C4=O)ccc3[nH]2)cc1)NCCNc1cccc(F)c1` [Example 10, N-(2-((3-fluorophenyl)amino)ethyl)-2-(4-(5-(1-oxo-5-(piperidin-1-yl)-1,3-dihydro-2H-isoindol-2-yl)-1H-benzimidazol-2-yl)phenoxy)acetamide], the “average fluorescent intensity (at 1 μM)” value is 1032 and the “average fluorescent intensity (at 30 μM)” value is recorded as “—”.

With `CN(CCc1ccccc1)C(=O)CNC(=O)COc1ccc(-c2nc3cc(N4Cc5cc(N6CCCCC6)ccc5C4=O)ccc3[nH]2)cc1` [Example 11, N-methyl-N^~2^~-((4-(5-(1-oxo-5-(piperidin-1-yl)-1,3-dihydro-2H-isoindol-2-yl)-1H-benzimidazol-2-yl)phenoxy)acetyl)-N-(2-phenylethyl)glycinamide], the “average fluorescent intensity (at 1 μM)” value is listed as 1182 and the “average fluorescent intensity (at 30 μM)” value was “—”.

Turning to `O=C1c2ccc(N3CCOCC3)cc2CN1c1ccc2[nH]c(-c3ccc(OCc4ccccc4)cc3)nc2c1` [Example 55, 2-(2-(4-(benzyloxy)phenyl)-1H-benzimidazol-5-yl)-5-(morpholin-4-yl)isoindolin-1-one], the “average fluorescent intensity (at 1 μM)” value amounted to 1092 and the “average fluorescent intensity (at 30 μM)” value is on record as “—”.

Consider `O=C(COc1ccc(-c2nc3cc(N4Cc5cc(N6CCOCC6)ccc5C4=O)ccc3[nH]2)cc1)Nc1ccccc1` [Example 37, 2-(4-(5-(5-(rnorpholin-4-yl)-1-oxo-1,3-dihydro-2H-isoindol-2-yl)-1H-benzimidazol-2-yl)phenoxy)-N-phenylacetamide], for which the “average fluorescent intensity (at 1 μM)” value worked out at 1696 and the “average fluorescent intensity (at 30 μM)” value was found to be 1290.

Turning to `O=C1c2ccc(N3CCOCC3)cc2CN1c1ccc2[nH]c(-c3ccccc3)nc2c1` [Example 73, 5-(morpholin-4-yl)-2-(2-phenyl-1H-benzimidazol-5-yl)isoindolin-1-one], the “average fluorescent intensity (at 1 μM)” value was 1231 and the “average fluorescent intensity (at 30 μM)” value is listed as 922.

For the compound `CCN(CC)c1ccc2c(c1)CN(c1ccc3[nH]c(-c4ccc(OC)cc4)nc3c1)C2=O` [Example 71, 5-(diethylamino)-2-(2-(4-methoxyphenyl)-1H-benzimidazol-5-yl)isoindolin-1-one], the “average fluorescent intensity (at 1 μM)” value was 923 and the “average fluorescent intensity (at 30 μM)” value is listed as “—”.

On to `CCOc1ccc(-c2nc3ccc(N4Cc5cc(N6CCOCC6)ccc5C4=O)cc3n2C)cc1` [Example 60, 2-(2-(4-ethoxyphenyl)-1-methyl-1H-benzimidazol-6-yl)-5-(morpholin-4-yl)isoindolin-1-one], for which the “average fluorescent intensity (at 1 μM)” value came to 770 and the “average fluorescent intensity (at 30 μM)” value came out at 868.

Take `CCOc1ccc(-c2nc3cc(N4Cc5cc(N6CCOCC6)ccc5C4=O)ccc3[nH]2)cc1` [Example 72, 2-(2-(4-ethoxyphenyl)-1H-benzimidazol-5-yl)-5-(morpholin-4-yl)isoindolin-1-one]: the “average fluorescent intensity (at 1 μM)” value was determined as 1370 and the “average fluorescent intensity (at 30 μM)” value was found to be 948.

For `O=C(COc1ccc(-c2nc3cc(N4Cc5cc(N6CCOCC6)ccc5C4=O)ccc3[nH]2)cc1)N1CCCC1` [Example 34, 5-(morpholin-4-yl)-2-(2-(4-(2-oxo-2-(pyrrolidin-1-yl)ethoxy)phenyl)-1H-benzimidazol-5-yl)isoindolin-1-one], the “average fluorescent intensity (at 1 μM)” value came to 1540 and the “average fluorescent intensity (at 30 μM)” value is listed as “—”.

With `O=C1c2ccc(N3CCCCC3)cc2CN1c1ccc2[nH]c(-c3ccc(OCc4ccccc4)cc3)nc2c1` [Example 3, 2-(2-(4-(benzyloxy)phenyl)-1H-benzimidazol-5-yl)-5-(piperidin-1-yl)isoindolin-1-one], the “average fluorescent intensity (at 1 μM)” value was determined as 933 and the “average fluorescent intensity (at 30 μM)” value came to 1441.

With `O=C(COc1ccc(-c2nc3cc(N4Cc5cc(N6CCCCC6)ccc5C4=O)ccc3[nH]2)cc1)NCCCc1ccccc1` [Example 24, 2-(4-(5-(1-oxo-5-(piperidin-1-yl)-1,3-dihydro-2H-isoindol-2-yl)-1H-benzimidazol-2-yl)phenoxy)-N-(3-phenylpropyl)acetamide], the “average fluorescent intensity (at 1 μM)” value came out at 1241 and the “average fluorescent intensity (at 30 μM)” value is reported as “—”.

With `O=C(O)COc1ccc(-c2nc3cc(N4Cc5cc(N6CCOCC6)ccc5C4=O)ccc3[nH]2)cc1` [Example 51, (4-(5-(5-(morpholin-4-yl)-1-oxo-1,3-dihydro-2H-isoindol-2-yl)-1H-benzimidazol-2-yl)phenoxy)acetic acid], the “average fluorescent intensity (at 1 μM)” value turned out to be 963 and the “average fluorescent intensity (at 30 μM)” value came to 1279.

In the case of `O=C(COc1ccc(-c2nc3cc(N4Cc5cc(N6CCCCC6)ccc5C4=O)ccc3[nH]2)cc1)NC1CC1` [Example 25, N-cyclopropyl-2-(4-(5-(1-oxo-5-(piperidin-1-yl)-1,3-dihydro-2H-isoindol-2-yl)-1H-benzimidazol-2-yl)phenoxy)acetamide], the “average fluorescent intensity (at 1 μM)” value came out at 1260 and the “average fluorescent intensity (at 30 μM)” value is on record as 900.
